Test results published in paper PMC10907298 (Nature chemical biology, 2023).
Values joined by “and” are separate entries in the source; they are usually repeats but may differ in a detail not shown here. Equal entries are not always repeated. “Also recorded” adds a separate entry of the source.

Tests used:
human STING R238A = human STING R238A (Homo sapiens, UniProt Q86WV6, R238A); assay: ISRE reporter assay with STING co-transfection in HEK293T cells; conditions: for ISRE reporter activity, mean: STING R238A
human STING R95A = human STING R95A (Homo sapiens, UniProt Q86WV6, R95A); assay: as above
human STING = human STING (Homo sapiens, UniProt Q86WV6, G230A/R293Q/R71H); assay: THP1-Dual ISRE-Luc reporter gene assay (primary screen and dose response); conditions: for THP1-Dual reporter activity: single replicates (n=2)
[1] = system: BMDM, human STING knock-in; assay: IP10 induction in bone marrow-derived macrophages; format: cell-based, mouse; conditions: 50μM, n=1
human STING S27V = human STING S27V (Homo sapiens, UniProt Q86WV6, S27V); assay: ISRE reporter assay with STING co-transfection in HEK293T cells
human STING R95K = human STING R95K (Homo sapiens, UniProt Q86WV6, R95K); assay: as above
human STING L134A = human STING L134A (Homo sapiens, UniProt Q86WV6, L134A); assay: as above
human STING V31M = human STING V31M (Homo sapiens, UniProt Q86WV6, V31M); assay: as above
[2] = target: hSTING(1–153)–mSTING(153–378) chimera (Homo sapiens, UniProt Q86WV6, A215V/A300E/A302V/A313V/A318T/A350V/D237N/D297E/D320G/E174G/E362R/E369D/G230I/G344N/H185L/H232R/I244V/K224M/K347M/K370Q/L189M/L202F/L222R/L247I/L333I/L346P/M214V/M357L/Q196R/Q276K/Q306R/R191S/R253P/S275A/S321N/S345A/S353P/T181M/T229N/T256V/T354P/T356V/V194G/V258I/V343M/V351A/Y182F/Y186H/Y274D); assay: as above; format: cell-based, human/mouse; conditions: for ISRE reporter activity, mean: h(1-153)/m(153-378)STING
human STING I103S = human STING I103S (Homo sapiens, UniProt Q86WV6, I103S); assay: as above
[3] = target: purified human STING (wild-type) (Homo sapiens, UniProt Q86WV6); assay: native gel analysis of STING oligomerization; conditions: compound alone, 40 μM, hSTING 20 μM
MC38 tumors = assay: MC38 flank tumor model in human STING knock-in mice; format: in vivo, mouse; conditions: for Tumor Volume: 800ug intratumorally days 11, 14, 18, individual animals, listed as MGL844
[4] = intratumoral, days 11, 14 and 18

Sequence of human STING V31M (Q86WV6 whole entry V31M): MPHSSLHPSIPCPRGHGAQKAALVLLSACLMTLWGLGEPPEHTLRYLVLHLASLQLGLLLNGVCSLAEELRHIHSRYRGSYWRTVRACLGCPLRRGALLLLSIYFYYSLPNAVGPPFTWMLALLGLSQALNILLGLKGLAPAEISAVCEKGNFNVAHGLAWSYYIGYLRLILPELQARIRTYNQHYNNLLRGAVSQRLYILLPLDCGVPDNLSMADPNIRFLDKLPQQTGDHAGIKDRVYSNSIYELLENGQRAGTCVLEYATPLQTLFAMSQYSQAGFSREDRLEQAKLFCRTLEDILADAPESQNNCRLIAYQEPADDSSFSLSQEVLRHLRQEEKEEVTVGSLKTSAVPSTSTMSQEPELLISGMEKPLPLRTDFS
Sequence of human STING R238A (Q86WV6 whole entry R238A): as the sequence (Q86WV6 whole entry V31M) above, with M31V, R238A counted along it
Sequence of human STING S27V (Q86WV6 whole entry S27V): as the sequence (Q86WV6 whole entry V31M) above, with S27V, M31V counted along it
Sequence of human STING (Q86WV6 whole entry R71H/G230A/R293Q): as the sequence (Q86WV6 whole entry V31M) above, with M31V, R71H, G230A, R293Q counted along it
Sequence of hSTING(1–153)–mSTING(153–378) chimera (Q86WV6 with tags, fused parts or gaps with the stated changes): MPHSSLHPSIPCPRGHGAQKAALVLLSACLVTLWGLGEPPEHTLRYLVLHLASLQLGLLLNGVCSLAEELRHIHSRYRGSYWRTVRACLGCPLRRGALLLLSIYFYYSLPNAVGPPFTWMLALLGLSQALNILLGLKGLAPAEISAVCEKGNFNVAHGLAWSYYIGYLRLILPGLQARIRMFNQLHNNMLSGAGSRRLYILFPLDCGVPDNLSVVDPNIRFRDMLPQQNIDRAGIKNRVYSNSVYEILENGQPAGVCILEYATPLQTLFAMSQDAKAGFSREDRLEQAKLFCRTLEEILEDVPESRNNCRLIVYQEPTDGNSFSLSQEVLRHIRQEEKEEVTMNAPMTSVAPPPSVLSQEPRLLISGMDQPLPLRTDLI
Sequence of human STING L134A (Q86WV6 whole entry L134A): as the sequence (Q86WV6 whole entry V31M) above, with M31V, L134A counted along it
Sequence of human STING I103S (Q86WV6 whole entry I103S): as the sequence (Q86WV6 whole entry V31M) above, with M31V, I103S counted along it
Sequence of human STING R95A (Q86WV6 whole entry R95A): as the sequence (Q86WV6 whole entry V31M) above, with M31V, R95A counted along it
Sequence of purified human STING (wild-type) (Q86WV6 1-343): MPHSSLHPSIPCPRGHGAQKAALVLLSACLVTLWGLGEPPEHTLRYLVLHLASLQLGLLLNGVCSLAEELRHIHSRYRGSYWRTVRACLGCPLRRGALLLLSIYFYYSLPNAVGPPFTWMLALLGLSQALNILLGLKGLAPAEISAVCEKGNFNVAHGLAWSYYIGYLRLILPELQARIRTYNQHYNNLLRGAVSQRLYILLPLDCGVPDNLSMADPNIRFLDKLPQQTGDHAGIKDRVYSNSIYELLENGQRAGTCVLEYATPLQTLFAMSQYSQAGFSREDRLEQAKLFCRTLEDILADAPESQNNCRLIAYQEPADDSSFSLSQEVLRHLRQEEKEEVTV
Sequence of human STING R95K (Q86WV6 whole entry R95K): as the sequence (Q86WV6 whole entry V31M) above, with M31V, R95K counted along it

SMILES: COc1cc(C(=O)O)ccc1NCc1ccc(C2(C(C)(C)C)OCC(C)(C)CO2)cc1 [NVS-STG2]
- STING activation in words (human STING R238A; R238A): maintained full agonist activity
- ISRE reporter activity, mean (human STING R238A; Log[μM] 0.267606): 22.8148
- ISRE reporter activity, mean (human STING R238A; Log[μM] 0.744728): 30.7761
- ISRE reporter activity, mean (human STING R238A; Log[μM] 1.22185): 19.5642
- ISRE reporter activity, mean (human STING R238A; Log[μM] 1.69897): 5.793
- ISRE reporter activity, mean (human STING R238A; Log[μM] -0.209515): 16.4448
- ISRE reporter activity, mean (human STING R238A; Log[μM] -0.686637): 8.4
- ISRE reporter activity, mean (human STING R238A; Log[μM] -1.16376): 4.954
- ISRE reporter activity, mean (human STING R238A; Log[μM] -4.30103): 2.802
- STING activation in words (human STING R95A): various degrees of reduction; also recorded: essentially irresponsive
- improvement of AC50 over NVS-STG1 (human STING): ~10 fold
- induction of ISRE-Luc reporter (human STING): over 100 fold
- THP1-Dual reporter activity (human STING; 97.7 nM): 10.063 and -15.21
- THP1-Dual reporter activity (human STING; 195 nM): 30.21 and -21.271
- THP1-Dual reporter activity (human STING; 391 nM): 28.405 and -4.368
- THP1-Dual reporter activity (human STING; 781 nM): -15.248 and 7.115
- THP1-Dual reporter activity (human STING; 1563 nM): 29.455 and 0.573
- THP1-Dual reporter activity (human STING; 3125 nM): 539.702 and 407.097
- THP1-Dual reporter activity (human STING; 6250 nM): 5408.19 and 4554.72
- THP1-Dual reporter activity (human STING; 12500 nM): 9931.09 and 8981.43
- THP1-Dual reporter activity (human STING; 25000 nM): 8940.66 and 8036.74
- IP10 ([1]; BMDM hSTING+/+): 5284 pg/mL
- IP10 ([1]; BMDM hSTING+/indel): 1541.25 pg/mL
- ISRE reporter activity, mean (human STING S27V; Log[μM] 0.2): 28.6
- ISRE reporter activity, mean (human STING S27V; Log[μM] 0.5): 35.2
- ISRE reporter activity, mean (human STING S27V; Log[μM] 0.8): 40.6
- ISRE reporter activity, mean (human STING S27V; Log[μM] 1.1): 46.1
- ISRE reporter activity, mean (human STING S27V; Log[μM] 1.4): 46.2
- ISRE reporter activity, mean (human STING S27V; Log[μM] -0.1): 22.7
- ISRE reporter activity, mean (human STING S27V; Log[μM] -0.4): 13.4
- ISRE reporter activity, mean (human STING S27V; Log[μM] -0.7): 7.4
- ISRE reporter activity, mean (human STING S27V; Log[μM] -1): 3.8
- ISRE reporter activity, mean (human STING S27V; Log[μM] -1.3): 1.4
- STING activation in words (human STING R95K): partially active
- STING activation in words (human STING L134A): various degrees of reduction
- ISRE reporter activity, mean (human STING L134A; Log[μM] 0.3, Figure 3c): 5.454
- ISRE reporter activity, mean (human STING L134A; Log[μM] 1, Figure 3c): 26.4486
- ISRE reporter activity, mean (human STING L134A; Log[μM] -0.4, Figure 3c): 2.468
- ISRE reporter activity, mean (human STING L134A; Log[μM] -1.1, Figure 3c): -1.106
- ISRE reporter activity, mean (human STING L134A; Log[μM] -1.8, Figure 3c): 1.759
- ISRE reporter activity, mean (human STING L134A; Log[μM] -2.49, Figure 3c): 2.73
- ISRE reporter activity, mean (human STING L134A; Log[μM] -3.19, Figure 3c): 5.607
- ISRE reporter activity, mean (human STING V31M; Log[μM] 0.2): 31.8
- ISRE reporter activity, mean (human STING V31M; Log[μM] 0.5): 43.5
- ISRE reporter activity, mean (human STING V31M; Log[μM] 0.8): 50.7
- ISRE reporter activity, mean (human STING V31M; Log[μM] 1.1): 52.8
- ISRE reporter activity, mean (human STING V31M; Log[μM] 1.4): 50.8
- ISRE reporter activity, mean (human STING V31M; Log[μM] -0.1): 25.4
- ISRE reporter activity, mean (human STING V31M; Log[μM] -0.4): 17.4
- ISRE reporter activity, mean (human STING V31M; Log[μM] -0.7): 10.4
- ISRE reporter activity, mean (human STING V31M; Log[μM] -1): 5.7
- ISRE reporter activity, mean (human STING V31M; Log[μM] -1.3): 2.2
- ISRE reporter activity, mean ([2]; Log[μM] 0.2): 5.4
- ISRE reporter activity, mean ([2]; Log[μM] 0.5): 12
- ISRE reporter activity, mean ([2]; Log[μM] 0.8): 17.4
- ISRE reporter activity, mean ([2]; Log[μM] 1.1): 24.2
- ISRE reporter activity, mean ([2]; Log[μM] 1.4): 26.3
- ISRE reporter activity, mean ([2]; Log[μM] -0.1): 2.6
- ISRE reporter activity, mean ([2]; Log[μM] -0.4): 1.4
- ISRE reporter activity, mean ([2]; Log[μM] -0.7): 0.8
- ISRE reporter activity, mean ([2]; Log[μM] -1): 0.7
- ISRE reporter activity, mean ([2]; Log[μM] -1.3): 0.7
- STING activation in words ([2]; hSTING TMD–mSTING LBD chimera): induced significant activation
- ISRE reporter activity, mean (human STING I103S; Log[μM] 0.2): 30.5
- ISRE reporter activity, mean (human STING I103S; Log[μM] 0.5): 41.9
- ISRE reporter activity, mean (human STING I103S; Log[μM] 0.8): 48.4
- ISRE reporter activity, mean (human STING I103S; Log[μM] 1.1): 57
- ISRE reporter activity, mean (human STING I103S; Log[μM] 1.4): 55.6
- ISRE reporter activity, mean (human STING I103S; Log[μM] -0.1): 23.3
- ISRE reporter activity, mean (human STING I103S; Log[μM] -0.4): 12.5
- ISRE reporter activity, mean (human STING I103S; Log[μM] -0.7): 7.7
- ISRE reporter activity, mean (human STING I103S; Log[μM] -1): 3.3
- ISRE reporter activity, mean (human STING I103S; Log[μM] -1.3): 1.4
- induction of STING oligomerization in words [3]: alone was able to induce high-order oligomers of STING
- Tumor Volume (MC38 tumors; day 10 post implant (before dosing)): 24.276 mm3 and 31.79 mm3 and 33.2145 mm3 and 35.594 mm3 and 59.168 mm3 and 64.512 mm3 and 74.431 mm3 and 81.466 mm3 and 88.36 mm3
- Tumor Volume (MC38 tumors; day 13 post implant): 23.275 mm3 and 45.6 mm3 and 74.925 mm3 and 56.074 mm3 and 80 mm3 and 91.936 mm3 and 95.648 mm3 and 133.28 mm3 and 139.707 mm3
- Tumor Volume (MC38 tumors; day 17 post implant): 23.04 mm3 and 36.414 mm3 and 64 mm3 and 34.2225 mm3 and 103.933 mm3 and 63.36 mm3 and 159.359 mm3 and 161.863 mm3 and 433.026 mm3
- Tumor Volume (MC38 tumors; day 20 post implant): 22.869 mm3 and 51.2 mm3 and 79.35 mm3 and 50.336 mm3 and 114.92 mm3 and 64.512 mm3 and 236.927 mm3 and 137.641 mm3 and 854.024 mm3
- Tumor Volume (MC38 tumors; day 25 post implant): 19.2 mm3 and 213.4 mm3 and 75.5 mm3 and 32 mm3 and 106.3 mm3 and 28.3 mm3 and 491.7 mm3 and 148.2 mm3
- Tumor Volume (MC38 tumors; day 28 post implant): 14.4 mm3 and 499.6 mm3 and 105 mm3 and 45.5 mm3 and 173.2 mm3 and 59.7 mm3 and 259.5 mm3
- Tumor Volume (MC38 tumors; day 31 post implant): 12.9 mm3 and 87.7 mm3 and 40 mm3 and 257.7 mm3 and 74.1 mm3 and 418.1 mm3
- Tumor Volume (MC38 tumors; day 33 post implant): 6.5 mm3 and 126 mm3 and 55.7 mm3 and 399.2 mm3 and 98.3 mm3 and 556.3 mm3
- mice with no tumor growth during the 33-day experimental period (MC38 tumors; [4]): 4 out of 9
- tumor growth in words (MC38 tumors; [4]): slowed tumor growth significantly
